Where two headings read alike, the source gives them in different places.
Experiments:
[1] = biological target: T1, cytoplasmic domain of the human CSF-1R (Homo sapiens, UniProt P07333); assay: In vitro kinase assay for colony stimulating factor-1 receptor (AlphaScreen); format: biochemical; conditions: tested at about 1 μM, read-out: CSF-1R percent inhibition
T1 construct: Recombinant protein corresponding to the cytoplasmic domain of the human CSF-1R; purchased Invitrogen Corporation, Carlsbad, Calif; PV3249
T1 sequence (P07333 539-972 limits assumed): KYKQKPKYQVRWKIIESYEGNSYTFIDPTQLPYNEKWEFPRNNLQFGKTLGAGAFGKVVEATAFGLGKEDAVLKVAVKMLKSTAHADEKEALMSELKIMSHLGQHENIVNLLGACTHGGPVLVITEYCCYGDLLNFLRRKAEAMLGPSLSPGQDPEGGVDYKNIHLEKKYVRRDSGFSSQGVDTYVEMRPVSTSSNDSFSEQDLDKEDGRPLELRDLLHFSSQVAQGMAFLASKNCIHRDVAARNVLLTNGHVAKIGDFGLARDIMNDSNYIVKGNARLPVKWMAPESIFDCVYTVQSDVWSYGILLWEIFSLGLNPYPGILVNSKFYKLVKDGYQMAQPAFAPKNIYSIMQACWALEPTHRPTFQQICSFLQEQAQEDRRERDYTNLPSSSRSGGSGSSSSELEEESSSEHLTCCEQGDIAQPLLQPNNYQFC
Outline: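 Kinase reaction used 4 nM recombinant cytoplasmic domain at 1 μM ATP in 50 mM Hepes pH 7.5 with 5 mM MgCl2, 10 mM MnCl2, 0.1% BSA, 1.0 mM DTT and 0.01% Tween 80. Compounds were serially diluted 3-fold from 25 μM. Phosphopeptide was detected by AlphaScreen, PT66 anti-phosphotyrosine acceptor plus streptavidin donor beads, read after overnight incubation.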

[2] = biological target: T2, kinase domain of cKIT (Homo sapiens, UniProt P10721); assay: Inhibition of cKIT kinase signaling in an in vitro biochemical assay (alphascreen); conditions: tested at about 1 μM, read-out: cKit percent inhibition
T2 construct: The kinase domain of cKIT was assayed in 50 mM Hepes; purchased Upstate 14-559
T2 sequence (P10721 589-937 limits assumed): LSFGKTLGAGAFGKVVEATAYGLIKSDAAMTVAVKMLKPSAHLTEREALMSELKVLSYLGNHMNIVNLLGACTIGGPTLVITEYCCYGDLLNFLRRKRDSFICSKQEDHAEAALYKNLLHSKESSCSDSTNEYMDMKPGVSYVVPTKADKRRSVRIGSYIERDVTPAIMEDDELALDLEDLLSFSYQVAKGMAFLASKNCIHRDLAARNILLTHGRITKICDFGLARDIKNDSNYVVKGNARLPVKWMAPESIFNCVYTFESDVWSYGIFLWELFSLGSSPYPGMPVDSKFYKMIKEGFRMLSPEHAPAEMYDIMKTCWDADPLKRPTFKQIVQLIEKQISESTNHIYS

[3] = biological target: T3, kinase domain of PDGFRβ (Homo sapiens, UniProt P09619); assay: Inhibition of PDGFRb kinase signaling in an in vitro biochemical assay (alphascreen); conditions: tested at about 1 μM, read-out: PDGFRβ percent inhibition
T3 construct: The kinase domain of PDGFRβ was assayed in 50 mM Hepes; purchased Invitrogen P3082
T3 sequence (P09619 600-962 limits assumed): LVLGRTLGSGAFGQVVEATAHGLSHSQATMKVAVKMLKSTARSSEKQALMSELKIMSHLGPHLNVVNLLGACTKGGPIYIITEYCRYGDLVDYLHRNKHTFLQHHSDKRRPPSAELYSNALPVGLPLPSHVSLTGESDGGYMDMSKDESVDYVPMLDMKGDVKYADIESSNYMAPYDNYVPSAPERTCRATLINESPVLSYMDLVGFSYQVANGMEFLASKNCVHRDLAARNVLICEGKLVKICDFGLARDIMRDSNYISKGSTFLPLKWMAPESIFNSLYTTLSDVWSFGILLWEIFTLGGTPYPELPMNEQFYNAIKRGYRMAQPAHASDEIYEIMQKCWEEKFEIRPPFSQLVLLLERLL

[4] = test system: MNFS60 (murine AML cells); assay: Cell viability assay in MCSF dependent MNFS60 cells (Cell Titer Glo); format: cell-based; conditions: Mus musculus, tested at about 1 μM, read-out: M-NFS-60 CP percent inhibition
Outline: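 3-fold DMSO dilution series (500× stocks); MCSF 10 ng/ml final; 72 hrs, 37° C., 5% CO2; CellTiter-Glo read-out; n=3; EC50 fitted.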

CNC(=O)c1cc(Oc2ccc3nc(NCCC4CC4)sc3c2)ccn1 [Example 290, 4-(2-(2-cyclopropylethylamino)benzo[d]thiazol-6-yloxy)-N-methylpicolinamide]
inhibition at 1 µM ([1]; compounds of Table 3): 100% | inhibition at 1 µM ([2]; compounds of Table 3): 10% | inhibition at 1 µM ([3]; compounds of Table 3): 15% | inhibition at 1 µM ([4]; compounds of Table 3): 2%

OC[C@@H](Nc1nc2ccc(Oc3ccnc4ccccc34)cc2s1)C1CCCCC1 [Example 236, (S)-2-cyclohexyl-2-(6-(quinolin-4-yloxy)benzo[d]thiazol-2-ylamino)ethanol]
inhibition at 1 µM ([1]; compounds of Table 3): 100% | inhibition at 1 µM ([2]; compounds of Table 3): 100% | inhibition at 1 µM ([3]; compounds of Table 3): 97% | inhibition at 1 µM ([4]; compounds of Table 3): 100%

CNC(=O)c1cc(Oc2ccc3nc(N[C@H]4CCCC[C@H]4NS(C)(=O)=O)sc3c2)ccn1 [Example 300, N-methyl-4-(2-((1S,2R)-2-(methylsulfonylamido)cyclo-hexylamino)benzo[d]thiazol-6-yloxy)picolinamide]
inhibition at 1 µM [1]: 99% | inhibition at 1 µM [2]: 2% | inhibition at 1 µM [3]: 0% | inhibition at 1 µM ([4]; MCSF dependent MNFS60 cells): 14%

CNC(=O)c1cc(Oc2cc(C)c3nc(NCC4CCCCC4)sc3c2)ccn1 [Example 374, 4-(2-(cyclohexylmethylamino)-4-methylbenzo[d]thiazol-6-yloxy)-N-methylpicolinamide]
inhibition at 1 µM [1]: 99% | inhibition at 1 µM [2]: 98% | inhibition at 1 µM [3]: 41% | inhibition at 1 µM ([4]; MCSF dependent MNFS60 cells): 3%

CNC(=O)c1cc(Oc2ccc3nc(NCc4c(Cl)cccc4OC)oc3c2)ccn1 [Compound 121, 4-[2-(2-Chloro-6-methoxy-benzylamino)-benzooxazol-6-yloxy]-pyridine-2-carboxylic acid methylamide]
inhibition at 1 µM [1]: 100% | inhibition at 1 µM [2]: 9% | inhibition at 1 µM [3]: 30% | inhibition at 1 µM ([4]; MNFS60 cells): 17%

CC(C)C[C@@H](CO)Nc1nc2ccc(Oc3ccnc4ccccc34)cc2s1 [Example 238, (S)-4-methyl-2-(6-(quinolin-4-yloxy)benzo[d]thiazol-2-ylamino)pentan-1-ol]
inhibition at 1 µM ([1]; compounds of Table 3): 100% | inhibition at 1 µM ([2]; compounds of Table 3): 100% | inhibition at 1 µM ([3]; compounds of Table 3): 90% | inhibition at 1 µM ([4]; compounds of Table 3): 100%

CNC(=O)c1cc(Oc2ccc3nc(NCc4c(F)cccc4OC)oc3c2)ccn1 [Compound 116, 4-[2-(2-Fluoro-6-methoxy-benzylamino)-benzooxazol-6-yloxy]-pyridine-2-carboxylic acid methylamide]
inhibition at 1 µM [1]: 100% | inhibition at 1 µM [2]: 100% | inhibition at 1 µM [3]: 18% | inhibition at 1 µM ([4]; MNFS60 cells): 10%

N#Cc1ccc2c(Oc3ccc4nc(NCC5CCCCC5)sc4c3)ccnc2c1 [Example 221, 4-(2-(cyclohexylmethylamino)benzo[d]thiazol-6-yloxy)quinoline-7-carbonitrile]
inhibition at 1 µM ([1]; compounds of Table 3): 100% | inhibition at 1 µM ([2]; compounds of Table 3): 97% | inhibition at 1 µM ([3]; compounds of Table 3): 88% | inhibition at 1 µM ([4]; compounds of Table 3): 52%

CC[C@H](C)[C@@H](CO)Nc1nc2ccc(Oc3ccnc(-c4cnn(C)c4)c3)cc2s1 [Example 349, (2S,3S)-3-methyl-2-(6-(2-(1-methyl-1H-pyrazol-4-yl)pyridin-4-yloxy)benzo[d]thiazol-2-ylamino)pentan-1-ol]
inhibition at 1 µM [1]: 100% | inhibition at 1 µM [2]: 77% | inhibition at 1 µM [3]: 73% | inhibition at 1 µM ([4]; MCSF dependent MNFS60 cells): 100%

Cn1cc(-c2cc(Oc3ccc4nc(NCc5ccccc5OC(F)F)sc4c3)ccn2)cn1 [Example 356, N-(2-(difluoromethoxy)benzyl)-6-(2-(1-methyl-1H-pyrazol-4-yl)pyridin-4-yloxy)benzo[d]thiazol-2-amine]
inhibition at 1 µM [1]: 100% | inhibition at 1 µM [2]: 100% | inhibition at 1 µM [3]: 99% | inhibition at 1 µM ([4]; MCSF dependent MNFS60 cells): 100%

CNC(=O)c1cc(Oc2ccc3nc(N[C@@H]4CC=CC[C@@H]4C(N)=O)sc3c2)ccn1 [Example 217]
inhibition at 1 µM ([1]; compounds of Table 3): 99% | inhibition at 1 µM ([2]; compounds of Table 3): 16% | inhibition at 1 µM ([3]; compounds of Table 3): 23% | inhibition at 1 µM ([4]; compounds of Table 3): 0%

c1ccc2c(Oc3ccc4nc(NCCC5CCOCC5)sc4c3)ccnc2c1 [Example 252, 6-(quinolin-4-yloxy)-N-(2-(tetrahydro-2H-pyran-4-yl)ethyl)benzo[d]thiazol-2-amine]
inhibition at 1 µM ([1]; compounds of Table 3): 100% | inhibition at 1 µM ([2]; compounds of Table 3): 100% | inhibition at 1 µM ([3]; compounds of Table 3): 6% | inhibition at 1 µM ([4]; compounds of Table 3): 81%
